# Measurements taken from ChEMBL document CHEMBL2177032, “Shooting for selective druglike G-quadruplex binders: evidence for telomeric DNA damage and tumor cell death” (2012).
# Activity calls are given as the source filed them. The calls are words filed in the database; no cut-off is given here.
# Experiments:
# Nucleic Acid [1] = experiment: Binding affinity to d(TGGGGT) quadruplex DNA by NMR analysis; type: nucleic-acid assay
# Nucleic Acid [2] = experiment: Binding affinity to d(TGGGGT) quadruplex DNA by chemical shift perturbation method; type: nucleic-acid assay
# Nucleic Acid [3] = experiment: Displacement of distamycin-A from d(TGGGGT) quadruplex DNA at compound/DNA ratio 4:1 by isothermal titration calorimetry analysis; type: nucleic-acid assay
# Nucleic Acid [4] = experiment: Binding affinity to d(TGGGGT) quadruplex DNA at compound/DNA ratio 4:1 by isothermal titration calorimetry analysis; type: nucleic-acid assay
# HeLa [5] = experiment: Induction of apoptosis in human HeLa cells at 3.5 uM after 96 hrs using Annexin V-FITC vs PI staining by flow cytometry (reference value: 5.3%); type: functional
# HeLa [6] = experiment: Induction of apoptosis in human HeLa cells at 3.5 uM after 120 hrs using Annexin V-FITC vs PI staining by flow cytometry (reference value: 8.3%); type: functional
# HeLa [7] = experiment: Induction of apoptosis in human HeLa cells at 3.5 uM after 72 hrs using Annexin V-FITC vs PI staining by flow cytometry (reference value: 3.9%); type: functional
# HeLa [8] = experiment: Induction of apoptosis in human HeLa cells at 3.5 uM after 24 hrs using Annexin V-FITC vs PI staining by flow cytometry (reference value: 3.8%); type: functional
# HeLa [9] = experiment: Cell cycle arrest in human HeLa cells assessed as accumulation at S phase at 3.5 uM after 120 hrs by flow cytometry (reference value: 31%); type: functional
# HeLa [10] = experiment: Cell cycle arrest in human HeLa cells assessed as accumulation at G2/M phase at 3.5 uM after 120 hrs by flow cytometry (reference value: 18%); type: functional
# HeLa [11] = experiment: Cell cycle arrest in human HeLa cells assessed as accumulation at G0-G1 phase at 3.5 uM after 120 hrs by flow cytometry (reference value: 51%); type: functional
# HeLa [12] = experiment: Cell cycle arrest in human HeLa cells assessed as accumulation at G2/M phase at 3.5 uM after 96 hrs by flow cytometry (reference value: 11%); type: functional
# HeLa [13] = experiment: Cell cycle arrest in human HeLa cells assessed as accumulation at sub-G1 phase at 3.5 uM after 120 hrs by flow cytometry (reference value: 14%); type: functional
# HeLa [14] = experiment: Cell cycle arrest in human HeLa cells assessed as accumulation at G0-G1 phase at 3.5 uM after 96 hrs by flow cytometry (reference value: 67%); type: functional
# HeLa [15] = experiment: Cell cycle arrest in human HeLa cells assessed as accumulation at S phase at 3.5 uM after 96 hrs by flow cytometry (reference value: 22%); type: functional
# HeLa [16] = experiment: Cell cycle arrest in human HeLa cells assessed as accumulation at sub-G1 phase at 3.5 uM after 96 hrs by flow cytometry (reference value: 6%); type: functional
# HeLa [17] = experiment: Cell cycle arrest in human HeLa cells assessed as accumulation at S phase at 3.5 uM after 72 hrs by flow cytometry (reference value: 22%); type: functional
# HeLa [18] = experiment: Cell cycle arrest in human HeLa cells assessed as accumulation at G2/M phase at 3.5 uM after 72 hrs by flow cytometry (reference value: 14%); type: functional
# HeLa [19] = experiment: Cell cycle arrest in human HeLa cells assessed as accumulation at G0-G1 phase at 3.5 uM after 72 hrs by flow cytometry (reference value: 64%); type: functional
# HeLa [20] = experiment: Cell cycle arrest in human HeLa cells assessed as accumulation at sub-G1 phase at 3.5 uM after 72 hrs by flow cytometry (reference value: 5%); type: functional
# HeLa [21] = experiment: Cell cycle arrest in human HeLa cells assessed as accumulation at S phase at 3.5 uM after 24 hrs by flow cytometry (reference value: 27%); type: functional
# HeLa [22] = experiment: Cell cycle arrest in human HeLa cells assessed as accumulation at G2/M phase at 3.5 uM after 24 hrs by flow cytometry (reference value: 16%); type: functional
# HeLa [23] = experiment: Cell cycle arrest in human HeLa cells assessed as accumulation at G0-G1 phase at 3.5 uM after 24 hrs by flow cytometry (reference value: 57%); type: functional
# HeLa [24] = experiment: Cell cycle arrest in human HeLa cells assessed as accumulation at sub-G1 phase at 3.5 uM after 24 hrs by flow cytometry (reference value: 3%); type: functional
# HeLa [25] = experiment: Cytotoxicity against human HeLa cells assessed as decrease in cell survival; type: functional, cell-based
# BJ [26] = experiment: Induction of telomere damage in human BJ cells expressing hTERT and SV40 early region assessed as gammaH2AX/TRF1 colocalizations at 0.1 to 0.5 uM after 24 hrs by immunofluorescence analysis; type: functional
# BJ [27] = experiment: Induction of DNA damage in human BJ cells expressing hTERT and SV40 early region assessed as damaged foci colocalized with TRF1 at 0.1 to 0.5 uM after 24 hrs by deconvolution microscopy analysis; type: functional, cell-based
# BJ [28] = experiment: Induction of DNA damage in human BJ cells expressing hTERT and SV40 early region at 0.5 uM after 24 hrs by immunofluorescence analysis; type: functional, cell-based
smiles,measurement,setting,value
CC1CCCN(Cc2c(O)ccc3c(O)c(-c4nc5ccccc5s4)c(=N)oc23)C1 (stereo unspecified),Activity,Nucleic Acid [1],Active
CCN1CCN(Cc2c(O)ccc3cc(-c4nc5ccccc5s4)c(=O)oc23)CC1,Activity,Nucleic Acid [2],Active
CC1CCCCN1Cc1c(O)ccc2c(=O)c(-c3nc4ccccc4s3)coc12 (stereo unspecified),Activity,Nucleic Acid [1],Active
CC1(C)C[C@H]2CN(Cc3c(O)ccc4c(=O)c(-c5nc6ccccc6s5)c(N)oc34)[C@](C)(C2)C1,Activity,Nucleic Acid [1],inactive
O=c1c(-c2nc3ccccc3s2)coc2c(CN3CCCC3)c(O)ccc12,Activity,Nucleic Acid [1],Active
O=c1oc2c(CN3CCN(CCO)CC3)c(O)ccc2cc1-c1nc2ccccc2s1,Activity,Nucleic Acid [3],Active
same,Activity,Nucleic Acid [4],Active
CC1CCN(Cc2c(O)ccc3c(=O)c(-c4nc5ccccc5s4)coc23)CC1,Activity,Nucleic Acid [1],Active
O=c1c(-c2nc3ccccc3s2)coc2c(CN3CCOCC3)c(O)ccc12,Activity,Nucleic Acid [1],Active
O=c1oc2c(CN3CCN(c4ccccc4)CC3)c(O)ccc2cc1-c1nc2ccccc2s1,Activity,Nucleic Acid [2],inactive
CC1CCCC(C)N1Cc1c(O)ccc2c(=O)c(-c3nc4ccccc4s3)c(N)oc12 (stereo unspecified),Activity,HeLa [5],13.9%
same,Activity,HeLa [6],30.6%
same,Activity,HeLa [7],7.1%
same,Activity,HeLa [8],4.6%
same,Activity,HeLa [9],26%
same,Activity,HeLa [10],31%
same,Activity,HeLa [11],43%
same,Activity,HeLa [12],32%
same,Activity,HeLa [13],38%
same,Activity,HeLa [14],40%
same,Activity,HeLa [15],28%
same,Activity,HeLa [16],19%
same,Activity,HeLa [17],23%
same,Activity,HeLa [18],37%
same,Activity,HeLa [19],40%
same,Activity,HeLa [20],12%
same,Activity,HeLa [21],28%
same,Activity,HeLa [22],20%
same,Activity,HeLa [23],52%
same,Activity,HeLa [24],5%
same,inhibition,HeLa [25],Dose-dependent effect
same,Activity,BJ [26],50%
same,Activity,BJ [27],Active
same,Activity,BJ [28],Active
same,Activity,Nucleic Acid [4],Active
same,Activity,Nucleic Acid [1],Active
CN1CCN(Cc2c(O)ccc3cc(-c4nc5ccccc5s4)c(=O)oc23)CC1,Activity,Nucleic Acid [2],Active
CC1CCN(Cc2c(O)ccc3c(O)c(-c4nc5ccccc5s4)c(=N)oc23)CC1,Activity,Nucleic Acid [1],Active
O=c1c(-c2nc3ccccc3s2)coc2c(CN3CCCCC3)c(O)ccc12,Activity,Nucleic Acid [1],Active
CC1CCCN(Cc2c(O)ccc3c(=O)c(-c4nc5ccccc5s4)coc23)C1 (stereo unspecified),Activity,Nucleic Acid [1],Active
O=c1c(-c2nc3ccccc3s2)coc2cc(O)ccc12,Activity,Nucleic Acid [1],inactive
CCN(CC)Cc1c(O)ccc2c(=O)c(-c3nc4ccccc4s3)coc12,Activity,BJ [26],50%
same,Activity,BJ [27],Active
same,Activity,BJ [28],Active
same,Activity,Nucleic Acid [4],Active
same,Activity,Nucleic Acid [1],Active
Cc1oc2c(CN3CCCC3)c(O)ccc2c(=O)c1-c1nc2ccccc2s1,Activity,Nucleic Acid [1],inactive
Cc1oc2c(CN(C)C)c(O)ccc2c(=O)c1-c1nc2ccccc2s1,Activity,Nucleic Acid [1],inactive
O=c1oc2c(CN(CCO)CCO)c(O)ccc2cc1-c1nc2ccccc2s1,Activity,Nucleic Acid [2],Active
CN(C)Cc1c(O)ccc2c(=O)c(-c3nc4ccccc4s3)coc12,Activity,Nucleic Acid [1],Active
CCC1CCCCN1Cc1c(O)ccc2c(=O)c(-c3nc4ccccc4s3)coc12 (stereo unspecified),Activity,Nucleic Acid [1],Active
Cn1cc(NC(=O)c2cc(NC(=O)c3cc(NC=O)cn3C)cn2C)cc1C(=O)NCCC(=N)N,Activity,BJ [27],Active
same,Activity,BJ [28],Active
CCc1cc2c(=O)c(-c3nc4ccccc4s3)coc2c(CN(CC)CC)c1O,Activity,Nucleic Acid [1],inactive
CCc1cc2c(=O)c(-c3nc4ccccc4s3)coc2c(CN2CCCC2)c1O,Activity,Nucleic Acid [1],inactive
CCOC(=O)N1CCN(Cc2c(O)ccc3cc(-c4nc5ccccc5s4)c(=O)oc23)CC1,Activity,Nucleic Acid [2],inactive
Nc1oc2c(CN3CCCCCC3)c(O)ccc2c(=O)c1-c1nc2ccccc2s1,Activity,BJ [26],50%
same,Activity,BJ [27],Active
same,Activity,BJ [28],Active
same,Activity,Nucleic Acid [4],Active
same,Activity,Nucleic Acid [1],Active
